Source: patent publication US10620112B2, “Measuring HIV reservoirs with optical scanning” (SRI INTERNATIONAL, priority 2015, dated 2020)

System: NL4-3 infected resting CD4+ T cells
Assay: Intracellular HIV Gag staining (flow cytometry) of resting CD4+ T cells directly infected with NL4-3, day 3 post-infection
Format: cell-based
Conditions: resting CD4+ T cells infected with NL4-3 by spinoculation, cultured in the presence of the compound, three days postinfection
Protocol: Quiescent CD4+ T cells in the G0/1a stage of the life cycle were enriched by depletion of lineage and activation markers (39, 40). Cells were infected with NL4-3 by spinoculation (32) and cultured in the absence of activating cytokines and in the presence of the protease inhibitor saquinavir (17, 39). dNs were added to infected cultures to overcome SAMHD1− mediated restriction that has been described in resting T cells (33, 41, 42). Three days postinfection cells were stained with LIVE/DEAD aqua and stained for surface markers with antibodies against CD3 (AF700), CD4 (PECy5.5), and CD25/CD69/HLA-DR (APC). Cells were then fixed, permeabilized and stained for HIV Gag. […] Consistent with our previous work, the cultured Gag+ cells lacked the activation markers CD25, CD69 and HLA-DR at day 3. […] The level of integrated HIV DNA was determined to be 0.32 copies per cell in the bulk culture (termed whole culture, WC). Gag+CD4− cells contained 1.2 HIV proviruses per cell, which represented an enrichment of integrated HIV DNA in Gag+CD4− cells compared to Gag− cell populations (Gag−CD4− cells contained 0.013 copies, Gag−CD4int cells contained 0.11 copies, and Gag− CD4+ cells contained 0.24 copies of integrated HIV DNA per cell).

Cc1nnc(C(=O)NC(C)(C)c2nc(C(=O)NCc3ccc(F)cc3)c(O)c(=O)n2C)o1 [raltegravir]
Gag staining of infected cells: very low Gag staining
